Reference: the supplement of paper PMC11061612

Assays:
Assay in all cases: Bliss excess, mean over the matrix (fraction); higher = more synergy
[1] = test system: LU-165 (Small Cell Lung Carcinoma)
How it was run: (§1)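 Bliss excess equals the observed combination effect minus the expected value EA + EB − EA·EB, where EA and EB are the effects of each agent alone. Combination Emax is the second-highest inhibition within the matrix. Inhibition was scaled from CellTiter-Glo 2.0 luminescence, with 0 set by vehicle wells and 1 by blank wells, after 72 hours of two-drug dosing of cells plated in 1536-well plates.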

[2] = test system: NB13 (Neuroblastoma)
How it was run: as §1

[3] = test system: JVM-2 (B-Cell Non-Hodgkin's Lymphoma)
How it was run: as §1

[4] = test system: SW620 (Colorectal Carcinoma)
How it was run: as §1

[5] = test system: EB2 (Burkitt's Lymphoma)
How it was run: as §1

[6] = test system: HCC1395 (Breast Carcinoma)
How it was run: as §1

[7] = test system: MHH-ES-1 (Ewing's Sarcoma)
How it was run: as §1

[8] = test system: IM-9 (Non-Cancerous)
How it was run: as §1

[9] = test system: CESS (Acute Myeloid Leukemia)
How it was run: as §1

[10] = test system: 5637 (Bladder Carcinoma)
How it was run: as §1

[11] = test system: A101D (Melanoma)
How it was run: as §1

[12] = test system: JHH-2 (Hepatocellular Carcinoma)
How it was run: as §1

[13] = test system: ESO26 (Esophageal Adenocarcinoma)
How it was run: as §1

[14] = test system: GA-10 (Burkitt's Lymphoma)
How it was run: as §1

[15] = test system: SK-HEP-1 (Hepatocellular Carcinoma)
How it was run: as §1

[16] = test system: KYSE-140 (Esophageal Squamous Cell Carcinoma)
How it was run: as §1

[17] = test system: DU-4475 (Breast Carcinoma)
How it was run: as §1

[18] = test system: EW-7 (Ewing's Sarcoma)
How it was run: as §1

[19] = test system: WM1552C (Melanoma)
How it was run: as §1

[20] = test system: G-402 (Other Solid Carcinomas)
How it was run: as §1

| SMILES | Bliss excess [1] | Bliss excess [2] | Bliss excess [3] | Bliss excess [4] | Bliss excess [5] | Bliss excess [6] | Bliss excess [7] | Bliss excess [8] | Bliss excess [9] | Bliss excess [10] | Bliss excess [11] | Bliss excess [12] | Bliss excess [13] | Bliss excess [14] | Bliss excess [15] | Bliss excess [16] | Bliss excess [17] | Bliss excess [18] | Bliss excess [19] | Bliss excess [20] |
| --- | --- | --- | --- | --- | --- | --- | --- | --- | --- | --- | --- | --- | --- | --- | --- | --- | --- | --- | --- | --- |
| NC1(C(=O)N[C@@H](CCO)c2ccc(Cl)cc2)CCN(c2ncnc3[nH]ccc23)CC1 [Capivasertib] + CCN(CCO)CCCOc1ccc2c(Nc3cc(CC(=O)Nc4cccc(F)c4)[nH]n3)ncnc2c1 [AZD2811] (first compound max 10 µM, 7x7, partner max 1 µM) | -0.0323 | -0.007 | -0.142 | -0.029 | -0.0299 | 0.001 | -0.0132 | -0.0686 | 0.0217 | -0.101 | -0.0282 | -0.0437 | -0.0308 | -0.111 | -0.0553 | -0.0096 | 0.0487 | 0.0251 | -0.0378 | -0.0502 |
| Cc1c2c(nn1C)CSCc1cc(n(C)n1)CSc1cc(c3ccccc3c1)OCCCc1c(C(=O)O)n(C)c3c-2c(Cl)ccc13 [AZD5991] + Cn1cnc2c(F)c(Nc3ccc(Br)cc3Cl)c(C(=O)NOCCO)cc21 [Selumetinib] (first compound max 1 µM, 7x7, partner max 3 µM) | -0.0335 | 0.045 | 0.0529 | 0.0005 | -0.0046 | 0.0152 | -0.0127 | 0.0092 | – | 0.0174 | 0.0482 | -0.0154 | 0.0199 | 0.0086 | -0.0484 | -0.015 | -0.0018 | 0.0096 | -0.089 | -0.0416 |
| COc1cccc(OCCCN)c1-c1cc(Nc2cnc(C#N)cn2)n[nH]1 [Prexasertib] + O=C(c1cc(Cc2n[nH]c(=O)c3ccccc23)ccc1F)N1CCN(C(=O)C2CC2)CC1 [Olaparib] (first compound max 1 µM, 7x7, partner max 10 µM) | -0.128 | -0.0317 | 0.0213 | -0.0457 | -0.0373 | -0.0368 | 0.0048 | 0.0046 | -0.0511 | -0.0729 | -0.0549 | -0.0428 | -0.0191 | -0.0649 | -0.0127 | -0.152 | -0.0174 | -0.0465 | -0.134 | -0.0572 |
| Cc1c2c(nn1C)CSCc1cc(n(C)n1)CSc1cc(c3ccccc3c1)OCCCc1c(C(=O)O)n(C)c3c-2c(Cl)ccc13 [AZD5991] + Cc1cc2ncnn2cc1Nc1ncc2c(n1)n(C1CCOCC1)c(=O)n2C [AZD7648] (first compound max 1 µM, 7x7, partner max 10 µM) | 0.0045 | 0.0153 | -0.046 | -0.0421 | 0.0285 | -0.0497 | -0.0323 | 0.014 | 0.0437 | -0.0232 | -0.0897 | -0.0272 | -0.0372 | -0.0508 | -0.0463 | -0.0345 | 0.0811 | -0.0105 | -0.0762 | 0.0229 |
| Cc1c2c(nn1C)CSCc1cc(n(C)n1)CSc1cc(c3ccccc3c1)OCCCc1c(C(=O)O)n(C)c3c-2c(Cl)ccc13 [AZD5991] + CN(C)CCCOc1ccc(-c2ccc3ncc4c(c3c2)n(C2CCOCC2)c(=O)n4C)cn1 [AZD0156] (first compound max 1 µM, 7x7, partner max 1 µM) | 0.0147 | 0.0007 | -0.0266 | 0.0345 | -0.0423 | – | -0.0112 | -0.0637 | -0.026 | -0.0014 | -0.0801 | 0.0012 | 0.008 | -0.0564 | 0.0098 | -0.0063 | -0.0262 | 0.0313 | -0.0444 | 0.0162 |
| CS(=O)(=O)CCNCc1ccc(-c2ccc3ncnc(Nc4ccc(OCc5cccc(F)c5)c(Cl)c4)c3c2)o1 [Lapatinib] + NC1(c2ccc(-c3nc4ccn5c(=O)[nH]nc5c4cc3-c3ccccc3)cc2)CCC1 [MK-2206] (first compound max 10 µM, 7x7, partner max 10 µM) | -0.0522 | -0.0348 | – | -0.0275 | -0.0348 | -0.0376 | 0.0191 | 0.0096 | – | – | -0.0638 | -0.0371 | – | – | -0.0936 | – | 0.0428 | 0.0239 | -0.0297 | – |
| C=CCn1c(=O)c2cnc(Nc3ccc(N4CCN(C)CC4)cc3)nc2n1-c1cccc(C(C)(C)O)n1 [AZD1775] + C1CN(CCC1(C(=O)N[C@@H](CCO)C2=CC=C(C=C2)Cl)N)C3=NC=NC4=C3C=CN4 [Capivasertib] (first compound max 3 µM, partner max 3 µM) | -0.117 | – | -0.0591 | -0.0402 | -0.0204 | -0.0085 | -0.034 | -0.0157 | -0.0359 | 0.0064 | 0.0152 | -0.122 | -0.0424 | 0.0431 | 0.0958 | -0.0859 | 0.0203 | 0.0149 | 0.0306 | -0.0346 |
| C=CCn1c(=O)c2cnc(Nc3ccc(N4CCN(C)CC4)cc3)nc2n1-c1cccc(C(C)(C)O)n1 [AZD1775] + CCc1c2c(nc3ccc(O)cc13)-c1cc3c(c(=O)n1C2)COC(=O)[C@]3(O)CC [SN-38] (first compound max 1 µM, partner max 0.3 µM) | -0.0771 | -0.0592 | – | -0.0563 | -0.0507 | -0.0322 | -0.0073 | 0.0003 | – | – | – | 0.106 | – | – | -0.0134 | – | – | -0.0501 | -0.0628 | – |
| CCc1c2c(nc3ccc(O)cc13)-c1cc3c(c(=O)n1C2)COC(=O)[C@]3(O)CC [SN-38] + O=C(c1cc(Cc2n[nH]c(=O)c3ccccc23)ccc1F)N1CCN(C(=O)C2CC2)CC1 [Olaparib] (first compound max 0.3 µM, 7x7, partner max 10 µM) | 0.0203 | -0.017 | 0.115 | 0.0524 | 0.0348 | 0.0315 | 0.0533 | 0.0871 | 0.0785 | – | 0.114 | -0.0442 | 0.0237 | – | 0.0077 | – | -0.0271 | 0.0538 | 0.0586 | 0.0614 |
| Cc1c2c(nn1C)CSCc1cc(n(C)n1)CSc1cc(c3ccccc3c1)OCCCc1c(C(=O)O)n(C)c3c-2c(Cl)ccc13 [AZD5991] + CCN(CCO)CCCOc1ccc2c(Nc3cc(CC(=O)Nc4cccc(F)c4)[nH]n3)ncnc2c1 [AZD2811] (first compound max 1 µM, 7x7, partner max 1 µM) | -0.025 | 0.131 | 0.032 | 0.0591 | 0.0391 | 0.0432 | 0.0173 | -0.0112 | 0.192 | 0.0103 | -0.0169 | -0.0213 | – | -0.0092 | 0.0084 | 0.0169 | 0.075 | 0.198 | -0.0095 | 0.0271 |
| C=CCn1c(=O)c2cnc(Nc3ccc(N4CCN(C)CC4)cc3)nc2n1-c1cccc(C(C)(C)O)n1 [AZD1775] + O=C(c1cc(Cc2n[nH]c(=O)c3ccccc23)ccc1F)N1CCN(C(=O)C2CC2)CC1 [Olaparib] (first compound max 1 µM, partner max 10 µM) | -0.103 | 0.0008 | 0.0055 | -0.0395 | -0.019 | -0.0557 | -0.0196 | -0.0305 | -0.0054 | -0.0551 | -0.0542 | -0.0609 | -0.0518 | -0.0462 | – | -0.0418 | 0.0395 | -0.0704 | -0.0941 | -0.0761 |
| Cc1nc(-c2cn3c(n2)-c2ccc(-c4cnn(C(C)(C)C(N)=O)c4)cc2OCC3)n(C(C)C)n1 [Taselisib] + O=C(Nc1ccc2[nH]nc(-c3ccncc3)c2c1)[C@@H]1CCN(CC(=O)N2CCN(c3ccc(-c4ncccn4)cc3)CC2)C1 [SCH772984] (first compound max 10 µM, 7x7, partner max 5 µM) | -0.0073 | 0.0664 | – | 0.0518 | 0.0182 | 0.0294 | 0.102 | -0.0407 | – | – | – | -0.0398 | – | – | 0.0372 | – | – | 0.0128 | 0.0205 | – |
| Cc1c2c(nn1C)CSCc1cc(n(C)n1)CSc1cc(c3ccccc3c1)OCCCc1c(C(=O)O)n(C)c3c-2c(Cl)ccc13 [AZD5991] + C[C@@H](Nc1cc(F)cc(F)c1)c1cc(C(=O)N(C)C)cc2c(=O)cc(N3CCOCC3)oc12 [AZD8186] (first compound max 1 µM, 7x7, partner max 3 µM) | -0.0238 | 0.0039 | 0.0024 | -0.0298 | 0.0282 | 0.0527 | -0.0142 | -0.0376 | -0.0325 | -0.036 | -0.0318 | -0.0261 | -0.0171 | 0.0321 | 0.0175 | -0.0439 | -0.0249 | -0.0178 | 0.0005 | – |
| C[C@@H](Oc1cc(-c2cnn(C3CCNCC3)c2)cnc1N)c1c(Cl)ccc(F)c1Cl [Crizotinib] + Cn1cnc2c(F)c(Nc3ccc(Br)cc3Cl)c(C(=O)NOCCO)cc21 [Selumetinib] (first compound max 10 µM, 7x7, partner max 10 µM) | -0.082 | -0.104 | – | 0.0065 | -0.0748 | -0.0786 | -0.0236 | -0.009 | – | – | – | 0.0094 | – | – | -0.0968 | – | – | -0.0101 | -0.0338 | – |
| CN(C)CCCOc1ccc(-c2ccc3ncc4c(c3c2)n(C2CCOCC2)c(=O)n4C)cn1 [AZD0156] + O=C(c1cc(Cc2n[nH]c(=O)c3ccccc23)ccc1F)N1CCN(C(=O)C2CC2)CC1 [Olaparib] (first compound max 3 µM, partner max 3 µM) | 0.0093 | – | 0.0457 | 0.0953 | 0.0892 | 0.0515 | 0.148 | 0.275 | 0.075 | 0.138 | 0.134 | 0.0203 | -0.0039 | 0.131 | 0.0576 | -0.0069 | 0.117 | 0.119 | 0.0213 | 0.0571 |
| C[C@@H]1COCCN1c1cc(C2([S@](C)(=N)=O)CC2)nc(-c2ccnc3[nH]ccc23)n1 [AZD6738] + C1CC(C1)(C(=O)[O-])C(=O)[O-].N.N.[Pt+2] [Carboplatin] (first compound max 10 µM, 7x7, partner max 10 µM) | -0.0517 | -0.0955 | – | -0.0461 | -0.0316 | -0.0573 | -0.0078 | 0.0081 | – | – | – | -0.0309 | – | – | -0.0469 | – | – | -0.0315 | -0.0299 | – |
